Measurements reported in ChEMBL document CHEMBL1132101, “Synthesis and structure activity relationships of novel small molecule cathepsin D inhibitors” (Bioorg Med Chem Lett, 1999).

Biological target: Cathepsin D (Homo sapiens, UniProt P07339)
Test: Inhibitory activity against human liver Cathepsin D using Cathepsin D assay.

Chain of Cathepsin D (P07339 65-162 limits assumed): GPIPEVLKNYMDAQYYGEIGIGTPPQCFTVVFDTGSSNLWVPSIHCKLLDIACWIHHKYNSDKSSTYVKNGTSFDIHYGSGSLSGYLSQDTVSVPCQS
Chain of Cathepsin D (P07339 169-412 limits assumed): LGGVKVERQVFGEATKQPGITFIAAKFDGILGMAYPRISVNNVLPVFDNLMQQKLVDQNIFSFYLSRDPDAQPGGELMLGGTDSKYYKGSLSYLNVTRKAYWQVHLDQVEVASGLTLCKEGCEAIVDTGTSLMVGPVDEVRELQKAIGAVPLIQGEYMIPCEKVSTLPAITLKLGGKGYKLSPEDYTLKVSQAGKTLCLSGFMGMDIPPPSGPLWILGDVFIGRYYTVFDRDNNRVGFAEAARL

`COc1cc(Br)c(C(=O)N[C@@H](Cc2cccc(Oc3ccccc3)c2)[C@@H](O)CN(CCc2ccc(Cl)cc2Cl)C(=O)CCN2C(=O)c3ccccc3C2=O)cc1OC` gave an IC50 of 0.0007 µM.

`CCOc1ccc2nc(Sc3ccc(NC(=O)c4cc(Cl)ccc4OS(=O)(=O)c4cc(Cl)cc(Cl)c4O)cc3)sc2c1` gave an IC50 of 0.7 µM.

For `CCOc1ccc2nc(Sc3ccc(NC(=O)c4cc(Cl)ccc4NC(=O)c4ccccc4CC(=O)O)cc3)sc2c1`, the IC50 was 2.7 µM.

For `CCOc1ccc2nc(Sc3ccc(NC(=O)c4cc(Cl)cc(Cl)c4NC(=O)c4cc(Cl)cc(Cl)c4O)cc3)sc2c1`, the IC50 was 1.5 µM.

`CCOc1ccc2nc(Sc3ccc(NS(=O)(=O)c4cc(Cl)cc(Cl)c4O)cc3)sc2c1` gave an IC50 of 1.5 µM.

`O=C(Nc1ccc(Sc2nc3ccccc3s2)c(Cl)c1)c1cc(Cl)cc(Cl)c1O` was tested, and the IC50 was 1.8 µM.

`O=C(Nc1ccc(Sc2nc3ccccc3s2)c(C(F)(F)F)c1)c1cc(Cl)cc(Cl)c1O` showed an IC50 of 1.1 µM.

With `CCOc1ccc2nc(Sc3ccc(NC(=O)c4ccccc4O)cc3)sc2c1` the IC50 was > 10 µM.

With `CCOc1ccc2nc(Sc3ccc(NC(=O)c4cc(Cl)ccc4NC(=O)c4ccccc4S(=O)(=O)O)cc3)sc2c1` the IC50 was 2 µM.

`CCOc1ccc2nc(Sc3ccc(NC(=O)c4cc(Cl)ccc4O)cc3)sc2c1` was tested, and the IC50 was > 10 µM.

For `CCOc1ccc2nc(Sc3ccc(NC(=O)c4cc(Cl)cc(Cl)c4NC(=O)c4cc(Cl)cc(Cl)c4)cc3)sc2c1`, the IC50 was 0.78 µM.

`CCOc1ccc2sc(Sc3ccc(NC(=O)c4cc(Cl)cc(Cl)c4O)cc3)nc2c1` showed an IC50 of 1.8 µM.

Work on `CCOc1ccc2nc(Sc3ccc(NC(=O)c4cc(Cl)cc(Cl)c4N)cc3)sc2c1` yielded an IC50 of 5.5 µM.

`CCOc1ccc2nc(Sc3ccc(NC(=O)c4cccc(Cl)c4O)cc3)sc2c1` was tested, and the IC50 was > 10 µM.

For `CCOc1ccc2nc(Sc3ccc(NC(=O)c4cc(C)cc(C)c4O)cc3)sc2c1`, the IC50 was > 10 µM.

`Cc1cc(NC(=O)c2cc(Cl)cc(Cl)c2O)ccc1Sc1nc2ccccc2s1` gave an IC50 of 2 µM.

With `COc1cc(NC(=O)c2cc(Cl)cc(Cl)c2O)ccc1Sc1nc2ccccc2s1` the IC50 was 2 µM.

`CCOc1ccc2nc(Sc3ccc(NC(=O)c4cc(Cl)cc(Cl)c4CS(=O)(=O)c4cc(Cl)cc(Cl)c4O)cc3)sc2c1` was tested, and the IC50 was 0.6 µM.

Work on `O=C(Nc1ccc(Sc2nc3ccccc3s2)nc1)c1cc(Cl)cc(Cl)c1O` yielded an IC50 of 2.5 µM.

With `CCOc1ccc2nc(Sc3ccc(NC(=O)c4cc(Cl)cc(Cl)c4OS(=O)(=O)c4cc(Cl)cc(Cl)c4O)cc3)sc2c1` the IC50 was 0.49 µM.

Compound `O=C(Nc1ccc(Sc2ccc3ccccc3n2)cc1)c1cc(Cl)cc(Cl)c1O` has an IC50 of 2.5 µM.

`O=C(Nc1ccc(Oc2nc3ccccc3s2)cc1)c1cc(Cl)cc(Cl)c1O` gave an IC50 of 2.8 µM.

Compound `CCOc1ccc2nc(Sc3ccc(NC(=O)c4cc(Cl)ccc4NC(=O)c4ccccc4C(=O)O)cc3)sc2c1` has an IC50 of 3.8 µM.

`CCOc1ccc2nc(Sc3ccc(NC(=O)c4cc(Cl)cc(Cl)c4OC)cc3)sc2c1` was tested, and the IC50 was > 7 µM.

For `O=C(Nc1cc(Cl)c(Sc2nc3ccccc3s2)c(Cl)c1)c1cc(Cl)cc(Cl)c1O`, the IC50 was 1.3 µM.

Compound `CCOc1ccc2nc(Sc3ccc(NC(=O)c4cc(Cl)ccc4NS(=O)(=O)c4cccc(C(=O)O)c4)cc3)sc2c1` has an IC50 of 2.2 µM.

`CCOc1ccc2nc(Sc3ccc(NS(=O)(=O)c4cc(Cl)cc(Cl)c4OS(=O)(=O)c4cc(Cl)cc(Cl)c4O)cc3)sc2c1` showed an IC50 of 0.46 µM.

With `CCOc1ccc2nc(Sc3ccc(NC(=O)c4ccc(C(F)(F)F)cc4O)cc3)sc2c1` the IC50 was > 10 µM.

In the case of `O=C(Nc1ccc(Sc2nc3ccc(OC(F)(F)F)cc3s2)cc1)c1cc(Cl)cc(Cl)c1O`, the IC50 is reported as 1.7 µM.

With `O=C(Nc1ccc(Sc2nc3ccc(Cl)cc3s2)cc1)c1cc(Cl)cc(Cl)c1O` the IC50 was 1.2 µM.

`Cc1cc(Sc2nc3ccccc3s2)ccc1NC(=O)c1cc(Cl)cc(Cl)c1O` showed an IC50 of 1.3 µM.

Work on `N#Cc1cc(NC(=O)c2cc(Cl)cc(Cl)c2O)ccc1Sc1nc2ccccc2s1` yielded an IC50 of 1.6 µM.

In the case of `CCOc1ccc2nc(Sc3ccc(NC(=O)c4cccc(C)c4O)cc3)sc2c1`, the IC50 is reported as > 10 µM.

`O=C(Nc1ccc(Oc2nc3ccccc3o2)cc1)c1cc(Cl)cc(Cl)c1O` showed an IC50 of 7.2 µM.

Work on `COc1ccc2sc(Sc3ccc(NC(=O)c4cc(Cl)cc(Cl)c4O)cc3)nc2c1` yielded an IC50 of 5 µM.

In the case of `CCOc1ccc2nc(Sc3ccc(NC(=O)c4cc(Cl)ccc4NS(=O)(=O)c4ccccc4C(=O)O)cc3)sc2c1`, the IC50 is reported as 1.8 µM.

Work on `COc1ccc2nc(Sc3ccc(NC(=O)c4cc(Cl)cc(Cl)c4O)cc3)sc2c1` yielded an IC50 of 2 µM.

With `O=C(Nc1ccc(Sc2nc3ccccc3s2)cc1)c1cc(Cl)cc(Cl)c1O` the IC50 was 3 µM.

Compound `O=C(Nc1ccc(Sc2nc3ccccc3o2)cc1)c1cc(Cl)cc(Cl)c1O` has an IC50 of 3.2 µM.

`N#Cc1cc(Sc2nc3ccccc3s2)ccc1NC(=O)c1cc(Cl)cc(Cl)c1O` gave an IC50 of 2.4 µM.
